Measurements as given in patent US20240124434A1, “ATF6 INHIBITORS AND USES THEREOF” (Altos Labs, Inc., priority 2018, published 2024).
pIC50: −log10 of the molar value. Values after ≈ are worked out from the molar mass of the structure shown. Like-named read-outs stand apart in the source and are kept apart here.

What was measured:
ATF6 = experiment: ERSE ATF6-luciferase reporter assay (thapsigargin-induced ER stress); format: cell-based, human; conditions: Homo sapiens, U2OS, thapsigargin-induced ER stress, U2-OS ATF6 luc reporter cells; for inhibition at 1 µM: 8 h, 8 hr; for IC50: read-out: IC50 ATF6-Luc reporter [μM], dose-response 30 μM to 1 nM; for pIC50: dose-response 30 μM to 1 nM, read-out: IC50 ATF6-Luc reporter
[1] = In vitro microsomal stability, human liver microsomes; format: in vitro ADME; conditions: for half-life at […], 1 µM / half-life at 1 μM: human, read-out: T1/2 @ hLM; for Rem. @ hLM (%): remaining fraction after 30 min, 1 μM compound, 0.5 mg/mL human liver microsomes, 1 mM NADPH
Description: (§1) Compounds were incubated at a final concentration of 1 μM with 0.5 mg/mL human liver microsomes (hLM) (#HMMCPL; Thermo), mouse liver microsomes (mLM) (#MSMCPL; Thermo) or rat liver microsomes (rLM) (#RTMCPL; Thermo) and 1 mM reduced dihydronicotinamide-adenine dinucleotide phosphate (NADPH) (#N1630; Sigma) in 100 mM phosphate buffer (pH 7.4) at 37° C. The reactions were terminated at 0, 5, 15 and 30 min by the addition of cold acetonitrile containing 50 ng/mL propranolol as an internal standard. […] Verapamil hydrochloride (#V4369 Aldrich) was used as a positive control in all studies.

[2] = In vitro microsomal stability, mouse liver microsomes; format: in vitro ADME; conditions: for half-life at 1 μM / half-life at […], 1 µM: mouse, read-out: T1/2 @ mLM; for Rem. @ mLM (%): remaining fraction after 30 min, 1 μM compound, 0.5 mg/mL mouse liver microsomes, 1 mM NADPH
Description: as §1

[3] = In vitro microsomal stability, rat liver microsomes; format: in vitro ADME; conditions: for Rem. @ rLM (%): remaining fraction after 30 min, 1 μM compound, 0.5 mg/mL rat liver microsomes, 1 mM NADPH
Description: as §1

[4] = Kinetic solubility (nephelometry); format: physicochemical; conditions: aqueous buffer, kinetic from dmso stock; PBS pH 7.4, 1% DMSO, 1 hour at 37° C., light scattering at 625 nm
Description: Concentration (μM) was then calculated by segmental regression. Amiodarone (#A8423 Aldrich) was used as positive control.

CYP2B6 = CYP2B6 (Homo sapiens (Human), UniProt P20813); experiment: CYP inhibition in human liver microsomes; conditions: read-out: CYP-2B6; human liver microsomes; probe substrate bupropion
Description: (§2) CYP inhibition by test compounds in human liver microsomes (HLM) for seven major CYP450 isoforms CYP1A2, CYP2C9, CYP2D6, CYP2B6, CYP2C8, CYP2C19 and CYP3A4 were assessed. […] 50 μM phenacetin, 2 μM midazolam, 5 μM diclofenac, 50 μM mephenytoin, 80 μM bupropion, and 5 μM dextromethorphan were used as probe substrates of CYP1A2, CYP3A4, CYP2C9, CYP2C19, CYP2B6, and CYP2D6, respectively. The incubation times were 20 min for […], CYP2D6, CYP2C9, CYP2B6, and CYP2C8; 40 min for CYP2C19; and 10 min for CYP 3A4. Following incubations, the reactions were terminated with acetonitrile containing internal standard. The samples were centrifuged and the supernatants were analyzed for the formation of metabolites (1-hydroxymidazolam (CYP3A4), 4-hydroxydiclofenac (CYP2C9), 4-hydroxymephenytoin (CYP2C19) and dextrorphan (CYP2D6), hydroxybupropion (CYP2B6), acetaminophen (CYP1A2), desethylamodiaquine (CYP2C8)) by LC/MS/MS.

CYP2C19 = CYP2C19 (Homo sapiens (Human), UniProt P33261); experiment: CYP inhibition in human liver microsomes; conditions: read-out: CYP-2C19; human liver microsomes; probe substrate mephenytoin
Description: as §2

CYP2C8 = CYP2C8 (Homo sapiens (Human), UniProt P10632); experiment: CYP inhibition in human liver microsomes; conditions: read-out: CYP-2C8, metabolite desethylamodiaquine
Description: as §2

CYP2C9 = CYP2C9 (Homo sapiens (Human), UniProt P11712); experiment: CYP inhibition in human liver microsomes; conditions: read-out: CYP-2C9; human liver microsomes; probe substrate diclofenac
Description: as §2

CYP2D6 = CYP2D6 (Homo sapiens (Human), UniProt P10635); experiment: CYP inhibition in human liver microsomes; conditions: read-out: CYP-2D6; human liver microsomes; probe substrate dextromethorphan
Description: as §2

CYP3A4 = CYP3A4 (Homo sapiens (Human), UniProt P08684); experiment: CYP inhibition in human liver microsomes; conditions: read-out: CYP-3A4; human liver microsomes; probe substrate midazolam
Description: as §2

[5] = mouse, in vivo, po, 10 mg/kg
Description: (§3) Tested compounds were formulated at 1 mg/mL as a dosing solution for oral administration in vehicle A: 10% dimethylacetamide (DMAC), 20% propylene glycol, and 40% PEG-400 or vehicle B: 10% Kolliphor® EL and 10% ethanol (EtOH).
(§4) Animals were acclimated for a minimum period of 4 days upon arrival at the testing facility.
(§5) At the day of study, mice were weighed, identified by marking the tail with numbers using a non-toxic permanent marker, and designated into ten experimental groups (n=3 per group).
(§6) Non-dosed mice were used to collect samples of zero time points. […] Blood samples were centrifuged immediately at 9,000 g at 4° C. for 5 minutes and then plasmas were separated. Plasma samples were placed into individually labeled cryovials and stored in a −80° C. freezer until LC/MS/MS bioanalysis.
(§7) The bioanalysis of plasma samples was conducted with a QTRAP 4500 triple quadrupole mass spectrometer (Applied Biosystems SCIEX) in the positive ion mode and interfaced with an Ekspert Ultra LC100 UPLC System (Eksigent). Calibration standards (0.01 to 10 μM) and QCs (0.02, 0.2 and 2.0 μM) were prepared from naïve mouse plasma in parallel with mouse plasma study samples (60 μL) by precipitation with three volumes of ice cold internal standard solution (acetonitrile containing 20 μM of theophylline). The precipitated samples were centrifuged at 6,100 g for 30 min. Following centrifugation, an aliquot of each supernatant was transferred to an autosampler plate and diluted with two volumes of aqueous mobile phase (0.1% formic acid in water). Samples were injected onto a reverse phase analytical column (YMC Triart C18; 2.0×50 mm; 1.9 μm; YMC CO) and eluted with a gradient of 0.1% formic acid in Acetonitrile. Assayed test compound and internal standards were monitored by a multiple reaction monitoring (MRM) experiment using an Analyst software (v1.6.2, Applied Biosystems SCIEX). Quantitation was conducted using a MultiQuant software (v2.1, Applied Biosystems SCIEX) and the resulting calibration curve was fitted with a linear regression and 1/x weighting. The lower limits of quantitation were 1<LLQ <5 ng/mL.

in vivo = conditions: Balb/c, mouse, po, 10 mg/kg
Description: as §3, §4, §5, §6, §7

[6] = read-out: Inh. ATF6-Luc @ 1 μM [%], 1 μM test compound
[7] = pH 7.4, intrinsic clearance, human liver microsomes, read-out: Clint @ hLM
[8] = pH 7.4, intrinsic clearance, mouse liver microsomes, read-out: Clint @ mLM
[9] = pH 7.4, intrinsic clearance, rat liver microsomes, read-out: Clint @ rLM
[10] = rat, rat liver microsomes, pH 7.4, read-out: T1/2 @ rLM
[11] = 1 μM test compound, read-out: Inh. ATF6-Luc @ 1 μM [%]

Chain of CYP2C19 (P33261 whole entry): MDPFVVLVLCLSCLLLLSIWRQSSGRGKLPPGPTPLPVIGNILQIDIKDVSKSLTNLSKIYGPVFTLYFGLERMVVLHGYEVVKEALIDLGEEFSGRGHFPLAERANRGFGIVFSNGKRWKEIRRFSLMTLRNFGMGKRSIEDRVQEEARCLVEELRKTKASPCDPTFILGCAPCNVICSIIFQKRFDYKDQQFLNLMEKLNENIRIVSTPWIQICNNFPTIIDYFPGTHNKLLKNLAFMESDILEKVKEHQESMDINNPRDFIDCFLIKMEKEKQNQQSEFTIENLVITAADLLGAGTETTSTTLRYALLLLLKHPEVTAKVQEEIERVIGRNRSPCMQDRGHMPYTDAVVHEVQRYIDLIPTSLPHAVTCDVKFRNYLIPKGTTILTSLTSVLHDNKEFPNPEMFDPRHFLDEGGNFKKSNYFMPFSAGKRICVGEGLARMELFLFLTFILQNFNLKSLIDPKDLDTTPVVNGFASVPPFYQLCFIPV
Chain of CYP2D6 (P10635 whole entry): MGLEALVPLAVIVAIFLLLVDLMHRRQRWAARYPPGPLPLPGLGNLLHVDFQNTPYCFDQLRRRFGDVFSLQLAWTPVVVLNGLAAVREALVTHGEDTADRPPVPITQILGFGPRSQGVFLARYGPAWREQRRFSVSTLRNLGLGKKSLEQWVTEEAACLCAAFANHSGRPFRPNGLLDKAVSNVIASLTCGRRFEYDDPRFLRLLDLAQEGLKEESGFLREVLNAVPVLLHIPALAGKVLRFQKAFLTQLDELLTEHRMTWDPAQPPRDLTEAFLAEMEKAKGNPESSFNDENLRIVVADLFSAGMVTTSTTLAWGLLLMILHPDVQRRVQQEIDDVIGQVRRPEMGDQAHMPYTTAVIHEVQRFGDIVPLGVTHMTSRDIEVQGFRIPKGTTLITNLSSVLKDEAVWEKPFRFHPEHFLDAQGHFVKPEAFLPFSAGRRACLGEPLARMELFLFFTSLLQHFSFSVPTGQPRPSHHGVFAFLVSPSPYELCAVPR
Chain of CYP2C8 (P10632 whole entry): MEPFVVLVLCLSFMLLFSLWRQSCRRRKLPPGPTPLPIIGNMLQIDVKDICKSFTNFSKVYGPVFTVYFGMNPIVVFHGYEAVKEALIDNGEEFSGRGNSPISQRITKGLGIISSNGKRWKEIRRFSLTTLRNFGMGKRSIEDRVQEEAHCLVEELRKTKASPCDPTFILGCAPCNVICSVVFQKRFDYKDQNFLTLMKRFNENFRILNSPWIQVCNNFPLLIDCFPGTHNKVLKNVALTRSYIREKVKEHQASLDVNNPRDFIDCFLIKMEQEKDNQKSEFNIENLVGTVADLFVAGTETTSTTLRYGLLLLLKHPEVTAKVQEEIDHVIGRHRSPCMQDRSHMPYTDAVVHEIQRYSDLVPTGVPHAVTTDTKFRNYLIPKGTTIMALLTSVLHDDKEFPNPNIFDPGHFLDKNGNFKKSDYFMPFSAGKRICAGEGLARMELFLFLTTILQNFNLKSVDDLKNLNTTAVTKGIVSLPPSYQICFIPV
Chain of CYP2C9 (P11712 whole entry): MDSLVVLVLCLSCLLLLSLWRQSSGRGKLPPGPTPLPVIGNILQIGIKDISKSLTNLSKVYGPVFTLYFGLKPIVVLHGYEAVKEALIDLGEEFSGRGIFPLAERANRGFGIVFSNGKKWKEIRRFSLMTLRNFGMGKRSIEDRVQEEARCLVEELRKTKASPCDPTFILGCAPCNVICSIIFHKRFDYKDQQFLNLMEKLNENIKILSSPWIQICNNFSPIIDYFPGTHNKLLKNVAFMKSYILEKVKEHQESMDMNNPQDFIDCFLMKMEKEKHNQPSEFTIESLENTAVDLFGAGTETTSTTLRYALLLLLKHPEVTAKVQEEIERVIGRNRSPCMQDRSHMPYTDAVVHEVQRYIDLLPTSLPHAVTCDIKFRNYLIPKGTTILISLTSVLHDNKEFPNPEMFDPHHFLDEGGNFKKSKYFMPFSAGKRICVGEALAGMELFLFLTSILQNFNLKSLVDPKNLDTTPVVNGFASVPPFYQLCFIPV
Chain of CYP2B6 (P20813 whole entry, canonical isoform): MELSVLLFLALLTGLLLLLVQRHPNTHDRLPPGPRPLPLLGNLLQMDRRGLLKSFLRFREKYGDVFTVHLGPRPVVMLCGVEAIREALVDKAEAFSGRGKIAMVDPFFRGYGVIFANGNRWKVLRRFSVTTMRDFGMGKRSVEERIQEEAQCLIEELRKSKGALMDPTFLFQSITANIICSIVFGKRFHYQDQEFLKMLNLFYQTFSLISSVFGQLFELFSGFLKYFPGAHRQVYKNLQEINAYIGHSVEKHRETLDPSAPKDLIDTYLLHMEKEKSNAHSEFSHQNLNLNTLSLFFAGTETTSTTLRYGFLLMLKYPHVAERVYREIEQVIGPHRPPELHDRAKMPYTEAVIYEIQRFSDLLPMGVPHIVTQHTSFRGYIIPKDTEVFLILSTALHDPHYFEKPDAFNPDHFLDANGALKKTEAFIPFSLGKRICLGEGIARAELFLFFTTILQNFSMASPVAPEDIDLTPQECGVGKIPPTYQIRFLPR
Chain of CYP3A4 (P08684 whole entry): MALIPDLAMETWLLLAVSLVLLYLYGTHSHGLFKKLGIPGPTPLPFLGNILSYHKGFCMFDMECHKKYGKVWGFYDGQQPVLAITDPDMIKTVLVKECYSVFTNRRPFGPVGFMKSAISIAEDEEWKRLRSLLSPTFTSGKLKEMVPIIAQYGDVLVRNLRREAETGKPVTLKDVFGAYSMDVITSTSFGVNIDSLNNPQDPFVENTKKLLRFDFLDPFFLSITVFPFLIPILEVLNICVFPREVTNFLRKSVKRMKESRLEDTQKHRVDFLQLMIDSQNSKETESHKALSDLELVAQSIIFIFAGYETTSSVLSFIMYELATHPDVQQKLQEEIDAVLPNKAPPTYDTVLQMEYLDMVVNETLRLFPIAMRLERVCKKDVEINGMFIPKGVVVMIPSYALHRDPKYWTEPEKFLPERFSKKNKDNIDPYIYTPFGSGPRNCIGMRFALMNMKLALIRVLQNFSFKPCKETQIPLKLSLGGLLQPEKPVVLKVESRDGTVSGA

Structure (SMILES)	inhibition at 1 µM (ATF6; [6])	IC50 (ATF6)	half-life at […], 1 µM ([1]; human liver microsomes, pH 7.4)	microsomal CLint at […], 1 µM [1, 7]	Rem. @ hLM (%) [1]	half-life at 1 μM ([2]; mouse liver microsomes, pH 7.4)	microsomal CLint at […], 1 µM [2, 8]	Rem. @ mLM (%) [2]	microsomal CLint at […], 1 µM [3, 9]	half-life at 1 μM [3, 10]	Rem. @ rLM (%) [3]	solubility kinetic at 1 h [4]	pIC50 (CYP2B6)	pIC50 (CYP2C19)	pIC50 (CYP2C8)	pIC50 (CYP2C9)	pIC50 (CYP2D6)	pIC50 (CYP3A4)	half-life at 1 μM ([1]; human liver microsomes, pH 7.4)	half-life at […], 1 µM ([2]; mouse liver microsomes, pH 7.4)	further results
C[C@H](c1ccc(C(F)(F)F)cc1C(F)(F)F)n1cc(NC(=O)c2cn(-c3ccccn3)nn2)cn1 [Compound 121, (R)—N-(1-(1-(2,4-bis(trifluoromethyl)phenyl)ethyl)-1H-pyrazol-4-yl)-1-(pyridine-2-yl)-1H-1,2,3-triazole-4-carboxamide]	25 to 50%	< 1 µM	133 min	10.4 µL/min/mg	84.4%	52.4 min	26.4 µL/min/mg	62.5%	23.9 µL/min/mg	58.1 min	64.5%	3.51 µM (≈ 1.74 µg/mL)	4.63	5.54	4.52	< 4.34	4.45	< 4.30	–	–	–
Cc1nn([C@H](C)c2ccc(C(F)(F)F)cc2C(F)(F)F)cc1NC(=O)c1cc(-c2ccccn2)on1 [Compound 99, (R)—N-(1-(1-(2,4-bis(trifluoromethyl)phenyl)ethyl)-3-methyl-1H-pyrazol-4-yl)-5-(pyridin-2-yl)isoxazole-3-carboxamide]	25 to 50%	1 to 10 µM	–	39.2 µL/min/mg	49.2%	–	85.2 µL/min/mg	29.2%	28.3 µL/min/mg	49 min	60.9%	2.34 µM (≈ 1.19 µg/mL)	5.32	5.06	6.00	5.60	4.49	< 4.30	35.4 min	16.3 min	–
C[C@H](c1ccc(C(F)(F)F)cc1C(F)(F)F)n1cc(NC(=O)c2cc(-c3cnccn3)on2)cn1 [Compound 131, (R)—N-(1-(1-(2,4-bis(trifluoromethyl)phenyl)ethyl)-1H-pyrazol-4-yl)-5-(pyrazin-2-yl)isoxazole-3-carboxamide]	> 50%	< 1 µM	–	–	–	–	–	–	–	–	–	–	4.35	4.79	4.36	< 4.30	< 4.30	< 4.30	–	–	AUCExtr [%] ([5]; Balb/c): 7.75%; F [%] ([5]; Balb/c): 85.9%; Vz ([5]; Balb/c): 0.831 L/kg; Last time point for AUClast [5]: 24 h; AUC(0-inf) (in vivo): 107 µg·h/mL; AUC(0-t) (in vivo): 98.7 µg·h/mL; Cmax (in vivo): 7030 ng/mL; Tmax (in vivo): 360 min; half-life (in vivo): 370 min
O=C(Nc1cnn(Cc2ccc(C(F)(F)F)cc2C(F)(F)F)c1)c1cc(-c2ncccn2)on1 [Compound 129, N-(1-(2,4-bis(trifluoromethyl)benzyl)-1H-pyrazol-4-yl)-5-(pyrimidin-2-yl)isoxazole-3-carboxamide]	> 50%	< 1 µM	–	–	68.0%	62.6 min	–	67.9%	12 µL/min/mg	–	84.5%	–	< 4.30	< 4.30	< 4.30	< 4.30	< 4.30	< 4.30	63.2 min	–	microsomal CLint at 1 μM [1, 7]: 22 µL/min/mg; microsomal CLint at 1 μM [2, 8]: 22 µL/min/mg; half-life at […], 1 µM [3, 10]: 114 min
CN(C(=O)c1cc(-c2ccccn2)on1)c1cnn(Cc2ccc(C(F)(F)F)cc2C(F)(F)F)c1 [Compound 103, N-(1-(2,4-bis(trifluoromethyl)benzyl)-1H-pyrazol-4-yl)-N-methyl-5-(pyridin-2-yl)isoxazole-3-carboxamide]	–	–	5.38 min	258 µL/min/mg	2.1%	–	271 µL/min/mg	0.94%	–	7.24 min	5.24%	9.37 µM (≈ 4.64 µg/mL)	–	–	–	–	–	–	–	5.12 min	inhibition at 1 µM (ATF6; [11]): 25 to 50%; pIC50 (ATF6): 5.00 to 6.00; microsomal CLint at 1 μM [3, 9]: 191 µL/min/mg
C[C@H](c1ccc(F)cc1C(F)(F)F)n1cc(NC(=O)c2cc(-c3ccccn3)on2)cn1 [Compound 110, (R)—N-(1-(1-(4-fluoro-2-(trifluoromethyl)phenyl)ethyl)-1H-pyrazol-4-yl)-5-(pyridin-2-yl)isoxazole-3-carboxamide]	–	–	–	51.3 µL/min/mg	39.72%	14.2 min	97.7 µL/min/mg	20.03%	28.7 µL/min/mg	48.3 min	60.99%	4.68 µM (≈ 2.08 µg/mL)	–	–	–	–	–	–	27 min	–	inhibition at 1 µM (ATF6; [11]): 25 to 50%; pIC50 (ATF6): 5.00 to 6.00
